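Dose response: 5 concentrations. Exposure: 48 h. Format: 96-well plates. Endpoint: linear interpolation; highest concentration if not reached. At the TGI there is no net growth.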
Tests used:
Assay in all cases: inhibition of tumour cell growth, NCI panel, 48 h
XF 498 CNS = system: XF 498 CNS
M19-MEL melanoma = system: M19-MEL melanoma
SF-295 CNS = system: SF-295 CNS
NCI-H460 lung = system: NCI-H460 lung
DMS 273 small cell lung = system: DMS 273 small cell lung
SK-MEL-2 melanoma = system: SK-MEL-2 melanoma
SK-OV-3 ovarian = system: SK-OV-3 ovarian
KM20L2 colon = system: KM20L2 colon
LOX IMVI melanoma = system: LOX IMVI melanoma
COLO 205 colon = system: COLO 205 colon
UO-31 renal = system: UO-31 renal
SNB-19 CNS = system: SNB-19 CNS
UACC-257 melanoma = system: UACC-257 melanoma
SF-539 CNS = system: SF-539 CNS
NCI-H23 lung = system: NCI-H23 lung
K-562 leukemia = system: K-562 leukemia
RXF 393 renal = system: RXF 393 renal
A549 NSCLC = system: A549 NSCLC
HCT-15 colon = system: HCT-15 colon
HCT-116 colon = system: HCT-116 colon
KM12 colon = system: KM12 colon
EKVX NSCLC = system: EKVX NSCLC
UACC-62 melanoma = system: UACC-62 melanoma
HL-60(TB) leukemia = system: HL-60(TB) leukemia
ACHN renal = system: ACHN renal
RPMI-8226 leukemia = system: RPMI-8226 leukemia
HCC-2998 colon = system: HCC-2998 colon
OVCAR-8 ovarian = system: OVCAR-8 ovarian
SR leukemia = system: SR leukemia
MALME-3M melanoma = system: MALME-3M melanoma
DLD-1 colon = system: DLD-1 colon
M14 melanoma = system: M14 melanoma
OVCAR-5 ovarian = system: OVCAR-5 ovarian
NCI-H226 lung = system: NCI-H226 lung
SF-268 CNS = system: SF-268 CNS
A498 renal = system: A498 renal
SK-MEL-5 melanoma = system: SK-MEL-5 melanoma
NCI-H522 lung = system: NCI-H522 lung
U251 CNS = system: U251 CNS
CCRF-CEM leukemia = system: CCRF-CEM leukemia
CAKI-1 renal = system: CAKI-1 renal
HOP-62 NSCLC = system: HOP-62 NSCLC
SN12C renal = system: SN12C renal
LXFL 529 NSCLC = system: LXFL 529 NSCLC
OVCAR-3 ovarian = system: OVCAR-3 ovarian
SK-MEL-28 melanoma = system: SK-MEL-28 melanoma
HT29 colon = system: HT29 colon
SNB-78 CNS = system: SNB-78 CNS
SW-620 colon = system: SW-620 colon
MOLT-4 leukemia = system: MOLT-4 leukemia
786-0 renal = system: 786-0 renal
OVCAR-4 ovarian = system: OVCAR-4 ovarian
DMS 114 small cell lung = system: DMS 114 small cell lung
IGROV1 ovarian = system: IGROV1 ovarian
SNB-75 CNS = system: SNB-75 CNS
TK-10 renal = system: TK-10 renal

Measured: TGI

N#CC(/C(=N/N=C(N)N)C(=O)Nc1ccccc1[N+](=O)[O-])c1nc(-c2ccc([N+](=O)[O-])cc2)cs1 (stereo unspecified)
> 100 µM: all assays above
